Legend:
[1] = test system: ANF, β-MHC, α-SMA expression; test: RT-PCR of cardiac fetal gene expression in NRVMs; assay type: cell-based, rat; conditions: PE 24 hours
Description: (§1) The mRNA was extracted from the cell lysates and then RT-PCR with the primers for ANF, β-MHC, α-SMA, and GADPH (internal control) was performed. *, p<0.05 versus PE+Ad-GFP; #, p<0.05 versus PE+GFP-HDAC5-WT, n=4.
The mRNA was extracted from the cell lysates, and quantitative RT-PCR with the primers for ANF and GADPH (internal control) were performed as described in the Examples. Quantitative data are shown (n=4).
Total RNA was isolated from NRVM using TRIzol (Invitrogen Corp.). Firststrand cDNA was synthesized with the SuperScript Preamplification System (Gibco-BRL). cDNA was amplified by PCR for 30 cycle (Applied Biosystem) as described previously (4, 5). Rat GAPDH served as an internal control. The following oligonucleotide primers were used in this study: rat ANF, sense 5′-[…]-3′ (SEQ ID NO:11) and antisense 5′-[…]-3′(SEQ ID NO:12) rat α-SMA, sense 5′-[…]-3′ (SEQ ID NO:13) and antisense 5′-[…]-3′ (SEQ ID NO:14); rat β-MHC (myosin heavy chain), sense 5′-[…]-3′ (SEQ ID NO:15) and antisense 5′-[…]-3′ (SEQ ID NO:16); rat GAPDH, sense 5′-[…]-3′ (SEQ ID NO:17) and antisense 5′-[…]-3′ (SEQ ID NO:18). Experiments were repeated three times.

[2] = test system: MEF2 transcriptional activity; test: 3xMEF2-luciferase reporter assay in NRVMs; assay type: cell-based, rat; conditions: PE 24 hours
Description: as §1
To assess MEF2 and CREB transcriptional activation, an adenovirus was used that encoded a 3×MEF2-dependent reporter gene in which three tandem repeats of MEF2 sites were located upstream of the thymidine kinase gene promoter and plasmid encoding CREB-dependent reporter gene. NRVMs or Cos7 cells cultured in 24-well were co-transfected with 3×MEF2 or CREB luciferase reporter gene and adenovirus encoding LacZ or GFP-HDAC5-WT, GFP-HDAC5-S280A mutant and GFP-HDAC5-S280D mutant. […] The luciferase activities in cell lysates were determined using the Dual-Luciferase Reporter Assay kit (Promega) and Wallac 1420 multi-label counter (PerkinElmer) as described previously (4, 5).

HDAC5 nuclear export = test: PMA-induced GFP-HDAC5 nuclear export in Cos7 cells (fluorescence microscopy); assay type: cell-based
Description: A, B, Cos7 cells were co-transfected with expression vectors encoding GFP-tagged HDAC5 (GFP-HDAC5) and constitutively active protein kinases as indicated, and then exposed to phorbol-12-myristate-13-acetate (PMA, […]) for 3 hours. […] A-F, The cells were fixed and the subcellular localization of GFP-HDAC5 was visualized by fluorescence microscopy.
C, D, Cos7 cells were transfected with GFP-HDAC5-WT or GFP-HDAC5-S280D and then exposed to PMA for 3 hours. GFP-HDAC5-S280D but not GFP-HDAC5-WT was resistant to PMA-induced nuclear export. *, p<0.05 versus without PMA, n=4. E, F, Cos7 cells were transfected with Flag-HDAC5-WT or Flag-HDAC5-S280A mutant, and then pretreated with forskolin followed with the exposure to PMA. Phosphorylation of HDAC5 in cell lysates was analyzed by immunoblotting with phospho-specific HDAC5 antibodies that recognize the HDAC5 phosphorylated at Ser259 (E) and Ser498 (F). G, H, Cos7 cells were transfected with Flag-HDAC5-WT, Flag-HDAC5-S280A or Flag-HDAC5-S280D, and then pretreated with forskolin, followed with the exposure to PMA. Coimmunoprecipitation of Flag-HDAC5 in cell lysates and then immunoblotting with anti-14-3-3 beta and anti-Flag antibodies in immunoprecipitates were performed. 14-3-3 in total cell lysates (5% of the input) was determined by immunoblotting with anti-14-3-3 antibodies. Representative blots are shown, n=3.
The cells were fixed and GFP-HDAC5 localization was analyzed by fluorescence microscopy.
For analysis of GFP-HDAC5 subcellular localization in NRVMs and Cos7 cells, cells were plated in the presence of adenovirus (multiplicity of infection, 50 to 100) on 35 mm dishes containing DMEM plus 10% FBS as previously described (Vega R B, et al. (2004) Protein kinases C and D mediate agonist-dependent cardiac hypertrophy through nuclear export of histone deacetylase 5. Mol Cell Biol 24(19):8374-8385).
After 24 hour culture, cells were maintained in serum-free DMEM medium for additional 24 hours, and then exposed to various inducers or inhibitors (for 30 minutes) prior to PE or PMA stimulation for indicated times. The cells were washed with PBS and fixed with 3.7% formaldehyde in PBS. Images were captured at a magnification of ×60, using a fluorescence microscope (Olympus BX51) equipped with a digital camera and Spot software system (RT Color Diagnostic Instruments). For analysis of the myocyte marker, sarcomeric α-actinin antibody and DAPI in neonatal cardiomyocyte, immunocytochemistry were performed according to a standard protocol. For subcellular localization of endogenous HDAC5 in cardiomyocyes, we fixed cells and used the detergent Saponin (Sigma, 84510) to make cells permeable, and then performed immunocytochemistry with anti-HDAC5 antibody (Santa Cruz, sc-11419). For subcellular localization of HDAC5, total around 200 cells were counted in each condition. For cardiomyocyte size, total myocyte surface areas were calculated using NIH Image J software, and expressed as the average of 100 randomly selected cells per condition.

`CCCC(=O)Nc1ncnc2c1ncn2[C@@H]1O[C@@H]2COP(=O)(O)O[C@H]2[C@H]1OC(=O)CCC` [cAMP, Dibutyryl-cAMP] was tested, and the “PE-elevated expression of ANF, β-MHC and α-SMA” value ([1]; NRVMs with GFP-HDAC5-WT, cAMP pretreatment) was “blocked this elevated gene expression”, the “PE-induced ANF expression (quantitative RT-PCR)” value ([1]; NRVMs, cAMP 30 min) was “decreases PE-induced ANF expression” and the “decrease in MEF2 transcriptional activation with HDAC5-S280A” value ([2]; NRVMs co-infected with adenoviral GFP-HDAC5-S280A) was “abolished the decrease in MEF2 transcriptional activation by cAMP”. The “PE-stimulated MEF2 transcriptional activity” value ([2]; NRVMs with GFP alone or GFP-HDAC5-WT, 30 min pretreatment) was “significantly inhibited PE-stimulated MEF2 transcriptional activity”, the “PMA-induced HDAC5 nuclear export” value (HDAC5 nuclear export; GFP-HDAC5-WT, pretreatment, then PMA for 3 hours) was “totally blocked HDAC5 nuclear export” and the “PMA-induced nuclear export of GFP-HDAC5-S280A” value (HDAC5 nuclear export; S280A mutant, cAMP pretreatment, PMA 3 hours) was “inhibited nuclear export of GFP-HDAC5-WT but not GFP-HDAC5-S280A”.

— US20130156753A1 (UNIVERSITY OF ROCHESTER, priority 2010, published 2013)
